# Experimental data: patent publication US8518677B2, “Microbial bioreaction process” (Evolva Sa, priority 2007, dated 2013)
# Legend:
# [1] = test system: S. cerevisiae strain PALCPR; experiment: Growth of evolved PALCPR strains in the presence of extraction solvent (CO2 production); assay type: cell-based; conditions: PALCPR-evolved-III from glycerol stock; 100 ml solvent from start, 800 rpm
# Description: The cells of the PALCPR-solvent culture described in the previous example were taken as starting point because the presence of the solvent mixture would possibly have already evoked adaptation of cells to solvents. For that, cells of the culture described in the previous example were harvested during mid-exponential-phase and stored at −80° C. in 15% glycerol and subsequently a fermentor, containing the same medium as described in the previous example with 10 g/l glucose and 100 g/l galactose, was then inoculated with cells of said PALCPR-solvent culture. The cells were allowed to fully consume the glucose at a stirring speed of 1000 rpm with an average dissolved oxygen content of above 70% of saturated air. At the onset of galactose consumption, the stirring rate was turned down to 300 rpm, after which slowly 100 ml of octylacetate was added.
# Galactose consumption indeed commenced again. A small arrest in CO2 production again occurred after 20 hours which, however, recovered after 5 hours, after which the cells grew exponentially with concomitant production of CO2, consumption of galactose within less than 40 hours. Based upon the CO2 production the specific growth rate was estimated to be 0.062 1/h (FIG. 2). The final biomass concentration was 21.6 g/l.
# In order to further improve said strain in terms of length of lag-phase and growth rate, a 25 ml aliquot of the exponentional growing PALCPR-evolved-I strain was used to inoculate a fermentor, containing a similar medium as described in the previous example. However, the medium now only contained 100 g/l galactose and did contain 100 ml of octylacetate from the beginning of the fermentation. In addition, the stirrer speed was instantly set at 800 rpm. Upon inoculation of the fermentor, consumption of galactose only commenced after approximately 40 hours, indicated by a slow increase in CO2 signal, a decrease in dissolved oxygen and addition of base. Indeed the cells continued to grow exponentially with concomitant production of CO2, and consumed the galactose within less than 90 hours. Based upon the CO2 production the specific growth rate was estimated to be 0.041 1/h (FIG. 3). The final biomass concentration was 21.5 g/l. The strain is referred to as PALCPR-evolved-II.
# Therefore, to further improve said strain in terms of both length of lag-phase and growth rate, a 50 ml aliquot of the exponentional growing PALCPR-evolved-II strain was used to inoculate a fermentor, containing a similar medium as described in the previous example (thus containing 100 g/l galactose 100 ml of octylacetate from the beginning of the fermentation). The stirrer speed was instantly set at 800 rpm. Upon inoculation of the fermentor, consumption of galactose already commenced after less then 20 hours, indicated by a slow increase in CO2 signal, a decrease in dissolved oxygen and addition of base. Indeed the cells further grew exponentially with concomitant production of CO2, and now consumed the galactose within approximately 50 hours. Based upon the CO2 production the specific growth rate was estimated to be 0.091 1/h (FIG. 4). The final biomass concentration was 18.9 g/l. The strain is referred to as PALCPR-evolved-III.
# The evolved PALCPR-evolved-III strain described in the previous example was grown in the presence of nonyl-acetate, a similar solvent as octylacetate with one additional carbon atom. A 1 ml aliquot of a glycerol stock that was made from an exponentional growing PALCPR-evolved-III strain was used to inoculate a fermentor, containing a similar medium as described in the previous example, containing only 100 g/l galactose and 100 ml of nonyl-acetate from the beginning of the fermentation. The stirrer speed was instantly set at 800 rpm. Upon inoculation of the fermentor, consumption of galactose only commenced after approximately 70 hours, indicated by a slow increase in CO2 signal, a decrease in dissolved oxygen and addition of base. […]
# [2] = test system: S. cerevisiae strain FS09229; experiment: Growth of non-evolved strain FS09229 in the presence of extraction solvent (CO2 production); assay type: cell-based; conditions: 100 ml solvent from start, 800 rpm
# Description: The non-evolved FS09229 strain described in previous examples was grown in the presence of nonyl-acetate. A 1 ml aliquot of a glycerol stock that was made from an exponentional growing FS09229 strain was used to inoculate a fermentor, containing a similar medium as described in the previous example, but now containing 100 g/l glucose and 100 ml of nonyl-acetate from the beginning of the fermentation. The stirrer speed was instantly set at 800 rpm. Upon inoculation of the fermentor, a long lag-phase of approximately 70 hrs set-in, during which an apparent adaptation to the solvent took place. Consumption of glucose only then commenced, indicated by a slow increase in CO2 signal, a decrease in dissolved oxygen and addition of base. Indeed the cells continued to grow exponentially with concomitant production of CO2, and consumed the glucose within less than 25 hours. […] The final biomass concentration was 15.5 g/l. The cultivation will be referred to as FS09229-solvent. As a control-experiment said strain was grown in the similar medium without the addition of nonyl-acetate. Upon inoculation of the fermentor, consumption of glucose commenced already after approximately 10 hours, indicated by an increase in CO2 signal, a decrease in dissolved oxygen and addition of base. […]
# [3] = partition coefficient between water and octanol; cited from earlier work
structure (smiles),measurement,setting,value
CCCCCCCCCOC(C)=O [nonyl-acetate],lag-phase until galactose consumption commenced,[1],approximately 70 hours
same,specific growth rate,[1],0.098 h⁻¹
same,lag-phase,[2],approximately 70 hrs
same,specific growth rate,[2]; 100 g/l glucose,0.176 h⁻¹
same,logP,[3],4.2
